How the values were obtained:
AlbAB = target: T1, AlbAB (Streptomyces noursei, UniProt Q8GED8+Q8GED9, Q8GED9:S77A); test: coupled horseradish peroxidase H2O2 fluorescence assay, Michaelis-Menten fit; type: biochemical; conditions: 100 mM Tris pH 8.0, 30 °C, O2, 1 mM 4-hydroxyphenylacetic acid, 0.1 U HRP, 0.25 µM AlbAB
T1 construct: gene albA; AlbA ca. 21 kDa, AlbB ca. 11 kDa; filament of alternating AlbA2 and AlbB2 dimers; FMN covalent at AlbA C115

[1] = target: the molecule itself; test: SEC + other: dynamic light scattering; DLS at 25 °C, AlbAB 0.1 mg/mL and AlbB 1 mg/mL in 150 mM NaCl, 20 mM Tris pH 7.5; size exclusion chromatography

T1 sequence (Q8GED9 24-219 S77A, one chain of several): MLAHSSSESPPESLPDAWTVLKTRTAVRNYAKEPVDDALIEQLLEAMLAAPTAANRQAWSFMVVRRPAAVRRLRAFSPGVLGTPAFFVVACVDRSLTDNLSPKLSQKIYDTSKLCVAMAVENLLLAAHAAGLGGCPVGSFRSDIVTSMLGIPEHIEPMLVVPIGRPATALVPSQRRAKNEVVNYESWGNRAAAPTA

Molecule | KM (AlbAB) | stoichiometry N [1]
CC(C)C[C@@H]1NC(=O)[C@H](Cc2ccccc2)NC1=O [cyclo(L-Phe-L-Leu)] | velocities for AlbAB and AlbA-S54A/AlbB were then fit to a Michaelis-Menton non-linear regression model | 
AlbB expressed alone (His tag removed) (natural protein, Streptomyces noursei, AlbB, Streptomyces noursei; gene PCR-amplified from the AlbAB-encoding pGM1190 vector into pETDuet-1 multiple cloning site 2, with a TEV site to remove the tag; also called His-tagged AlbB; source: E. coli BL21 (DE3), pETDuet-1, purified (His-Trap, TEV cleavage, second His-Trap); not shown: His tag, N-terminal, cleaved) MNPGETVLPPQLREEIALLAVYLLSSGRGLLEEPADYGIYRCTDGARRALQLLDEHGGSTARLTAVRERLDEVMFAPMGEDRDMGAILDDLCRQMADALPEIETP |  | 2

— publication PMC11055893, “Cyclodipeptide oxidase is an enzyme filament” (Nature Communications, 2024)
